Residues, ends and D or L forms follow the SMILES beside them. *: point of attachment. Cbz = O=C(OCc1ccccc1)*
What was measured:
TENC1 [1] = target: T1, TENC1 (Homo sapiens, UniProt Q63HR2, P1246L); assay: degradation of IRS-1 protein in myotube overexpressing TENC1, Western blotting; assay type: cell-based; design: expressed in transfected cells; host or cells: L6 myotube (adenoviral overexpression)
T1 sequence (Q63HR2 1-1409 P1246L): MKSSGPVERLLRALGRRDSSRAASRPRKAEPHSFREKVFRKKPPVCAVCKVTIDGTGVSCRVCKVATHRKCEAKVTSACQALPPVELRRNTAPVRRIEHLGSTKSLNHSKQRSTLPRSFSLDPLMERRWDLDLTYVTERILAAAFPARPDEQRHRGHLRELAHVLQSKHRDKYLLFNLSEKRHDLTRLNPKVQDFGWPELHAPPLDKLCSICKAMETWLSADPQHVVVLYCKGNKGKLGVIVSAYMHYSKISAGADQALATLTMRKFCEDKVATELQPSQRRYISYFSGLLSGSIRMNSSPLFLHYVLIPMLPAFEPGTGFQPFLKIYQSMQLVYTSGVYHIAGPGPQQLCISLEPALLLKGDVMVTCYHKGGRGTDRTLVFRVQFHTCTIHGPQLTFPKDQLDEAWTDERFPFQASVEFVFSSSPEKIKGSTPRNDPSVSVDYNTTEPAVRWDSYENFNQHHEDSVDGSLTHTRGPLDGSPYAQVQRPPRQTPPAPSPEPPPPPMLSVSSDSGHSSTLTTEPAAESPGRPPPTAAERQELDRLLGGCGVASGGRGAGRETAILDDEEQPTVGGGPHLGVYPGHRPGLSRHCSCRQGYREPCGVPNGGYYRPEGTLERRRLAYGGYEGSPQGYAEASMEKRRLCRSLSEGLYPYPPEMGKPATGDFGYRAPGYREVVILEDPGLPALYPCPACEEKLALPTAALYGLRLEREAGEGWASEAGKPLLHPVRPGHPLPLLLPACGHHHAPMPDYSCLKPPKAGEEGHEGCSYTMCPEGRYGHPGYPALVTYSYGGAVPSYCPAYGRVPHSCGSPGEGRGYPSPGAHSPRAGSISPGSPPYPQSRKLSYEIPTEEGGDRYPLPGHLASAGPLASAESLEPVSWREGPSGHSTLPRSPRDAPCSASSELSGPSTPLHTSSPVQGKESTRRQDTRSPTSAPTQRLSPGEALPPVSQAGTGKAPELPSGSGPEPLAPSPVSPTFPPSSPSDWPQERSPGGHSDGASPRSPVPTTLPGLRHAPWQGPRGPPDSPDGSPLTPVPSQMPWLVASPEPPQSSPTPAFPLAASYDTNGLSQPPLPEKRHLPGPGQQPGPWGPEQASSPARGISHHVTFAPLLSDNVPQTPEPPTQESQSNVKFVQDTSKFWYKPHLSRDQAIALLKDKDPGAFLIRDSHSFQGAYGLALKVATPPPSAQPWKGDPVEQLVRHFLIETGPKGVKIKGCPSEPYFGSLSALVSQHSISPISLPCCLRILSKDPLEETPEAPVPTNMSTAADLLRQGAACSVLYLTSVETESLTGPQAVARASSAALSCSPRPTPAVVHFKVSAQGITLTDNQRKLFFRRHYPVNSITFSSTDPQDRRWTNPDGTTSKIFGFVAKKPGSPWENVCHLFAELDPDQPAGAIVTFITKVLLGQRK
Procedure: In order to know a physiological function of TENC1, TENC1 was overexpressed in L6 myotube (muscle cell) that plays a main role in IRS-1, using an adenovirus. Using the same method as in Example 1, the quantitative PCR was performed and it was confirmed that TENC1 mRNA was increased eightfold to tenfold in the myotube. Then, using the same method as in Example 2, phosphorylation of proteins associated with IRS-1 was determined.
Accordingly, in order to determine the reason for the decrease of IRS-1, it was determined whether TENC1 influences a ubiquitin proteasome pathway or serine phosphorylation of IRS-1 by Western blotting. In order to determine whether TENC1 influences a protein-degrading mechanism, MG132, which is an inhibitor of a protein-degrading enzyme (proteasome), was treated.
In order to determine whether the PTPase activity of TENC1 influences degradation of IRS-1, vanadate was treated to determine whether degradation of IRS-1 is suppressed by Western blotting.

PTPase domain of TENC1 = target: T2, PTPase domain of TENC1 (Homo sapiens, UniProt Q63HR2, P1246L); assay: binding of TENC1 and IRS-1, immunoprecipitation using IRS-1; conditions: FIG. 5
T2 construct: expressed in transfected cells
T2 sequence (Q63HR2 1-1409 P1246L): T1 sequence (Q63HR2 1-1409 P1246L)
Procedure: In order to determine a mechanism of TENC1 that suppresses phosphorylation of IRS-1, immunoprecipitation was performed using IRS-1. In a control experiment, vanadate, which is an analogue of phosphotyrosine and binds to a PTPase domain to inhibit the PTPase activity, was used.

TENC1 [2] = target: T1, TENC1; assay: PTPase activity of separated TENC1, malachite green assay; assay type: biochemical; design: expressed in transfected cells; conditions: separated TENC1 proteins, FIG. 16A
Procedure: In addition, in order to measure the PTPase activity of TENC1, first, TENC1 was separated from HEK293 cell lines using a Flag immunoprecipitation/Flag peptide elution system. Then, the PTPase activity of the separated TENC1 was measured over time, using peptides having phosphotyrosine. The PTPase activity was analyzed by a malachite green assay method. As a control group, PTEN (a phosphatase and tensin homolog) or the TENC1 CS variant was used.
As a result, it was confirmed that the PTPase activity of TENC1 was inhibited by 60% or more (FIG. 16A).

CC(C)C[C@@H](C=O)NC(=O)[C@H](CC(C)C)NC(=O)[C@H](CC(C)C)NC(=O)OCc1ccccc1 [MG132] (Cbz-Leu-Leu-Leu-aldehyde)
amount of IRS-1 (TENC1 [1]; with and without insulin, TENC1 overexpressed, FIG. 9): the decreased amount of IRS-1 was restored

[O]=[V]([O-])([O-])[O-] [vanadate]
binding of TENC1 WT with IRS-1 (PTPase domain of TENC1): binding with IRS-1 decreased
degradation of IRS-1 (TENC1 [1]; vanadate treated, Western blotting, FIG. 10): degradation of IRS-1 was suppressed

C[C@H]1[C@H](C)CC[C@]2(C(=O)O)CC[C@]3(C)C(=CC[C@@H]4[C@@]5(C)CC[C@H](O)C(C)(C)[C@@H]5CC[C@]43C)[C@H]12 [ursolic acid]
degree of degradation of IRS-1 protein (TENC1 [1]; myotube overexpressing TENC1, increasing concentration, FIG. 16C): IRS-1 is restored to a level similar to a control group
inhibition at 20 µM (TENC1 [2]): ≥ 60%

From US9402856B2, “Pharmaceutical composition for preventing or treating diabetes containing TENC1 expression or activity suppressor” (POSTECH ACADEMY-INDUSTRY FOUNDATION, priority 2012, dated 2016)
